Experimental findings from US11246871B2, “Targeting adenosine A2A receptors for the treatment of levodopa-induced dyskinesias” (Northwestern University, priority 2016, dated 2022) are described below.

“Also recorded” adds a separate entry of the source.

For experiment [1], the system named is unilateral 6-OHDA lesioned mice (L-DOPA-induced dyskinesia). As to the kind of experiment: Mouse unilateral 6-OHDA model and LID, abnormal involuntary movements (AIMs) scoring. It is filed as in vivo. The procedure:
Mouse Unilateral 6-Hydroxydopamine (6-OHDA) Model and LID
Mice were anaesthetized with an isoflurane precision vaporizer, placed in a stereotaxic frame, and a hole was drilled over the medial forebrain bundle. After exposing the skull, 3.5 mg ml^−1 free base 6-OHDA with 0.02% ascorbic acid was injected using a glass micropipette. Three weeks after surgery, the degree of damage to nigrostriatal DA neurons was assessed with a forelimb-use asymmetry test. Striatal sections from a subset of mice were stained with tyrosine hydroxylase to verify successful lesion. One day after the test, mice underwent behavioral testing for abnormal involuntary movements (AIMs) following L-DOPA treatment. Treatment with L-DOPA was given daily for 15 days at the doses of 3 mg kg^−1. Animals were randomly allocated to receive treatment with L-DOPA and vehicle, or L-DOPA and an A2a receptor antagonist.
Data analysis was conducted with Igor Pro 6 and Clampfit 9. EPSP amplitude was calculated from 50 sweeps immediately before the start of induction and 20-30 min after the end of induction. Compiled data were expressed as mean±SEM. Statistical tests were performed using Excel and SigmaStat. […] Data were analyzed using parametric repeated measure two-way ANOVA followed by post hoc Bonferroni's test.

Experiment [2] has as its system dSPNs. Briefly: Patch-clamp recording of LTP induction in striatal slices from 6-OHDA lesioned animals. The settings on record: shortly after the last injection of L-DOPA (ON-state). The arrangement: species or system Mouse. The procedure:
(§1) Mice were deeply anesthetized intraperitoneally with a mixture of ketamine and xylazine. Parasagittal slices were cut in ice-cold aCSF. Whole-cell and perforated-patch recordings were performed in the dorsolateral striatum at 30-31° C. […] These protocols consisted of 20-60 trains of five bursts repeated at 0.1 Hz, with each burst composed of three APs preceded with three EPSPs at 50 Hz (pre-post timing pairing, +5 ms) or three APs followed by one EPSP (post-pre timing pairing, −10 ms). To ensure induction of consistent synaptic plasticity, postsynaptic neurons were depolarized to −70 mV from their typical resting membrane potentials (−85 mV) during their induction. GABAA was blocked by the bath application of gabazine (10 μM).
(§2) Data analysis was conducted with Igor Pro 6 and Clampfit 9. EPSP amplitude was calculated from 50 sweeps immediately before the start of induction and 20-30 min after the end of induction. Compiled data were expressed as mean±SEM. Statistical tests were performed using Excel and SigmaStat. Nonparametric Mann-Whitney or Wilcoxon tests were used to assess the experiment results, using a probability threshold of 0.05. Statistical analyses for behavioral data were carried out using Prism 6. Data were analyzed using parametric repeated measure two-way ANOVA followed by post hoc Bonferroni's test.
Background: Patch clamp records ionic current or voltage across a cell membrane.

The subject of experiment [3] is iSPNs. As to the kind of experiment: Patch-clamp recording of LTD induction in striatal slices from 6-OHDA lesioned animals. The arrangement: species or system Mouse. The settings on record: dyskinetic ON-state after L-DOPA. The procedure:
as §1, §2

As for `COc1ccc(N2CCOCC2)c2sc(NC(=O)N3CCC(C)(O)CC3)nc12` [tozadenant], the “development of LID behaviors” value in experiment [1] (systemic tozadenant 30 mg/kg 5 hours after L-DOPA doses, L-DOPA 3 mg/kg daily for 15 days, vs L-DOPA+vehicle, p<0.05) was “reduces the development of LID behaviors”. In experiment [1] (treated in the LID OFF-state), the “LID scores induced by subsequent doses of L-DOPA (ON-state)” value was “significantly attenuates LID scores”.

Regarding `N[C@@H](Cc1ccc(O)c(O)c1)C(=O)O` [L-DOPA, L-3,4-dihydroxyphenylalanine], the “LTP induction in dSPNs” value in experiment [2] is recorded as “LTP was recovered in dSPNs; also recorded: restores LTP in dSPNs”. For the same compound, in experiment [3], the “LTD induction in iSPNs” value is listed as “LTD was recovered; also recorded: LTD in iSPNs”.
